Laboratory results as given in patent publication US20230064292A1, “METHODS OF TREATING PSMA-POSITIVE CANCER USING RADIONUCLIDE THERAPY” (priority 2020, published 2023).

Test system: prostate specific antigen (PSA)
Experiment: PSA levels in patients after CTT1403 administration
Assay type: in vivo, human
Method: In order to investigate the pharmacokinetics of CTT1403, doses were administered by IV to fifteen subjects. The subjects each had histologically confirmed prostate adenocarcinoma that was metastatic and castration resistant (mCRPA). Subjects with de novo small cell carcinoma of the prostate were excluded. The subjects further had at least three metastatic foci avid for PSMA-specific PET agent CTT1057 or 68Ga-PSMA-11 uptake. PSMA avidity was defined as SUVmax>mediastinal blood pool. The subjects had received docetaxel, were ineligible for docetaxel, or had refused docetaxel. They all further had progression by the PCWG3 criteria during or after treatment with abiraterone, enzalutamide, and/or apalutamide, and had serum testosterone<50 ng/dL. Subjects without a history of bilateral orchiectomy were required to remain on a luteinizing hormone-releasing hormone (LHRH) analog during the course of the protocol therapy.
Reduction in prostate specific antigen (PSA) at least 12 weeks after therapeutic administration is generally thought to be predictive of therapeutic efficacy. PSA levels at screening, at CTT1403 administration and at specified time points after CTT1403 administration are shown for selected patients enrolled in the trial, including patients still actively under observation (Patients 13, 14, 15). Reduction in PSA compared to Cycle 1, Day 1 has been observed in 4 patients to date: Patient 002 (75% maximum reduction), Patient 4 (40% maximum reduction), Patient 13 (14% reduction to date) and Patient 15 (9% reduction to date).

O=C(O)CC[C@H](NP(=O)(O)OCCC[C@H](NC(=O)CC[C@H](NC(=O)CCCCCNC(=O)CCC(NC(=O)CCOCCOCCOCCOCCNC(=O)CCC(=O)N1Cc2ccccc2-c2c(nnn2CCCNC(=O)CN2CCN3CCN4CCN(CC2)CC(=O)[O][177Lu]([O]C(=O)C3)[O]C(=O)C4)-c2ccccc21)C(=O)NC(CCCCNC(=O)CCCc1ccc(I)cc1)C(=O)O)C(=O)O)C(=O)O)C(=O)O (stereo partly drawn) [CTT1403]
Reduction in PSA compared to Cycle 1, Day 1 (Patient 002, maximum reduction): 75% | Reduction in PSA compared to Cycle 1, Day 1 (Patient 4, maximum reduction): 40% | Reduction in PSA compared to Cycle 1, Day 1 (Patient 13, reduction to date): 14% | Reduction in PSA compared to Cycle 1, Day 1 (Patient 15, reduction to date): 9% | PSA Result (patient 2 (1.50 GBq), 4 Weeks Post Treatment): 405.6 µg/L | PSA Result (patient 2 (1.50 GBq), 8 Weeks Post Treatment): 167.013 µg/L | PSA Result (patient 2 (1.50 GBq), 12 Weeks Post Treatment): 45.716 µg/L | PSA Result (patient 2 (1.50 GBq), Cycle 1-Day 1): 162.353 µg/L | PSA Result (patient 2 (1.50 GBq), Cycle 1-Day 22): 185.132 µg/L | PSA Result (patient 2 (1.50 GBq), Cycle 2-Day 1): 194.320 µg/L | PSA Result (patient 2 (1.50 GBq), End of Treatment): 215.919 µg/L | PSA Result (patient 4 (3.00 GBq), 8 Weeks Post Treatment): 41.80 µg/L | PSA Result (patient 4 (3.00 GBq), Cycle 1-Day 1): 65.684 µg/L | PSA Result (patient 4 (3.00 GBq), Cycle 1-Day 22): 77.876 µg/L | PSA Result (patient 4 (3.00 GBq), End of Treatment): 115.658 µg/L | PSA Result (patient 4 (3.00 GBq), Screening (before dosing)): 70.228 µg/L | PSA Result (patient 13 (5.99 GBq), Cycle 1-Day 1): 146.133 µg/L | PSA Result (patient 13 (5.99 GBq), Cycle 1-Day 22): 148.217 µg/L | PSA Result (patient 13 (5.99 GBq), Cycle 2-Day 1): 135.620 µg/L | PSA Result (patient 13 (5.99 GBq), Cycle 2-Day 22): 126.392 µg/L | PSA Result (patient 13 (5.99 GBq), Screening (before dosing)): 166.793 µg/L | PSA Result (patient 14 (7.98 GBq), Cycle 1-Day 1): 22.642 µg/L | PSA Result (patient 14 (7.98 GBq), Cycle 1-Day 22): 142 µg/L | PSA Result (patient 14 (7.98 GBq), Screening (before dosing)): 16.310 µg/L | PSA Result (patient 15 (7.77 GBq), Cycle 1-Day 1): 595.739 µg/L | PSA Result (patient 15 (7.77 GBq), Cycle 1-Day 22): 543.5 µg/L | PSA Result (patient 15 (7.77 GBq), Screening (before dosing)): 410.363 µg/L
